Measurements published in PubChem BioAssay AID1845210 (Molecular Pharmacology Branch, DTP, NCI, 2023).

System: NCI-H226 complex tumor spheroids, viability
Assay: Anticancer human tumor NCI-H226 cell line growth inhibition;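 further: spheroids exposed to compound for 7 days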;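 on viability, T/C: 100% = DMSO vehicle control viability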
Conditions: for IC50: curve of first compound; for viability, T/C: stronger effect = lower value
Text: Multicellular complex tumor spheroid response to DNA repair inhibitors in combination with DNA-damaging drugs
This study explores the anticancer activities of DNA-damaging drugs and inhibitors of DNA damage repair, both as single agents and in combinations. Complex tumor spheroids comprised of malignant cells, endothelial cells and mesenchymal stem cells served as an in vitro model for human solid tumors. This model system incorporates physiologically relevant features and patient-derived or established malignant cell lines with clinically relevant genetic alterations from many tumor types. Twenty-six patient-derived or established malignant cell lines were evaluated representing sarcoma, melanoma, small cell lung cancer (SCLC), non-small cell lung cancer (NSCLC), as well as bladder, ovarian and pancreatic cancers. The concentration ranges selected for each drug and investigational agent were based upon clinically achievable concentrations if the clinical Cmax of the agent was known.
Compounds. The drugs and compounds olaparib (NSC753686), talazoparib (NSC767125), berzosertib (NSC777718), elimusertib (NSC800525), nedisertib (NSC802822), VX-984 (NSC792969), AZD-1390 (NSC803789), temozolomide (NSC362856), topotecan (NSC609699), trabectedin (NSC813783), staurosporine (NSC755774), and gemcitabine (NSC613327) were obtained from the National Cancer Institute (NCI) Developmental Therapeutics Program Chemical Repository. The FDA-approved anticancer drug set is available from the Developmental Therapeutics Program at https://dtp.cancer.gov/organization/dscb/obtaining/available_plates.htm. […] The stock solutions were prepared in dimethyl sulfoxide (DMSO, Sigma-Aldrich, St. Louis, MO, cat. D2650) at 400-fold the tested concentration and stored at -70 degrees C. Prior to their use, the stock solutions were diluted in fresh medium and the final DMSO concentration in the assay was 0.25% (v/v). All drugs and investigational agents were tested over a range starting from a high concentration at or near the clinical Cmax and decreasing in half-log increments. If the clinical Cmax for an agent had not been determined, the highest concentration tested was 10 microM.
Cell Lines. The patient-derived cancer cell (PDC) lines: 156681-154-R-J1-PDC, 283228-195-R-J1-PDC, 287954-098-R-J1-PDC, 292921-168-R-J2-PDC, 349418-098-R-PDC, 425362-245-T-J1-PDC, 556581-035-R-J1-PDC, and BL0293-F563-PDC were received from the NCI Patient-Derived Models Repository (PDMR, https://pdmr.cancer.gov). The established cell lines HS-SY-2 (RRID:CVCL_8719), MPNST, and SYO-1 (RRID:CVCL_7146) were obtained from the Sloan Kettering Institute. The alveolar soft parts sarcoma cell line ASPS-1 (RRID:CVCL_S738) was established at the NCI and grown from internal seed stocks. The following established cell lines were purchased from the American Type Culture Collection (ATCC, Manassas, VA): G-401 (ATCC, cat. CRL-1441, RRID:CVCL_0270), SW982 (ATCC, cat. HTB-93, RRID:CVCL_1734), VA-ES-BJ (ATCC, cat. CRL-2138, RRID:CVCL_1785), NCI-H719 (ATCC, cat. CRL-5837, RRID:CVCL_1582), NCI-H196 (ATCC, cat. CRL-5823, RRID:CVCL_1509), NCI-H841 (ATCC, cat. CRL-5845, RRID:CVCL_1595), NCI-H1618 (ATCC, cat. CRL-5879, RRID:CVCL_1480), NCI-H1876 (ATCC, cat. CRL-5902, RRID:CVCL_1503), DMS 114 (ATCC, cat. CRL-2066; RRID:CVCL_1174), NCI-H211 (ATCC, cat. CRL-5824; RRID:CVCL_1529), and SW 1271 (ATCC, cat. CRL-2177, RRID:CVCL_1716). The small cell lung cancer cell line COR-L88 was purchased from Sigma-Aldrich (cat. 92031917-1VL, RRID:CVCL_1141). The non-small cell lung cancer cell lines NCI-H226 (RRID:CVCL_1544) and NCI-H322M (RRID:CVCL_1557) were established at the NCI and grown from internal seed stocks. Pooled donor human umbilical vein endothelial cells (HUVEC, Lonza, cat. CC-2519) and human mesenchymal stem cells (hMSC, Lonza, cat. PT-2501) were purchased from Lonza (Walkersville, MD).
Cell Culture. All cells were maintained in an incubator at 37 degrees C and 5% CO2 with 95% humidity. […]

Question: With CC(C)n1c(=O)n(C)c2cnc3cc(F)c(-c4ccc(OCCCN5CCCCC5)nc4)cc3c21 + CC[C@@]1(O)C(=O)OCc2c1cc1n(c2=O)Cc2cc3c(CN(C)C)c(O)ccc3nc2-1 as the compound, how does the IC50 (second compound 0.003 µM) read?
Answer: The IC50 was 6020 nM.

Question: What about the IC50 (second compound 0.00949 µM) of the same compound?
Answer: Its IC50 is 5720 nM.

Question: And the IC50 (second compound 0.03 µM)?
Answer: The IC50 was 5240 nM.

Question: What about the IC50 (second compound 0.0949 µM) of the same compound?
Answer: The IC50 was 4410 nM.

Question: What about the IC50 (second compound 0.3 µM) of the same compound?
Answer: The IC50 was 5010 nM.

Question: And the viability, T/C (second compound 0.003 µM, first compound 0.0316 µM)?
Answer: Its viability, T/C is 99.8%.

Question: What about the viability, T/C (second compound 0.003 µM, first compound 0.1 µM) of the same compound?
Answer: Its viability, T/C is 92.3%.

Question: And the viability, T/C (second compound 0.003 µM, first compound 0.316 µM)?
Answer: Its viability, T/C is 94.5%.

Question: And the viability, T/C (second compound 0.003 µM, first compound 1 µM)?
Answer: Its viability, T/C is 93.9%.

Question: What about the viability, T/C (second compound 0.003 µM, first compound 3.16 µM) of the same compound?
Answer: Its viability, T/C is 82.3%.

Question: What about the viability, T/C (second compound 0.003 µM, first compound 10 µM) of the same compound?
Answer: The viability, T/C was 24.5%.

Question: And the viability, T/C (second compound 0.00949 µM, first compound 0.0316 µM)?
Answer: Its viability, T/C is 86.4%.

Question: What about the viability, T/C (second compound 0.00949 µM, first compound 0.1 µM) of the same compound?
Answer: Its viability, T/C is 86.5%.

Question: And the viability, T/C (second compound 0.00949 µM, first compound 0.316 µM)?
Answer: Its viability, T/C is 86.5%.

Question: What about the viability, T/C (second compound 0.00949 µM, first compound 1 µM) of the same compound?
Answer: The viability, T/C was 86.3%.

Question: And the viability, T/C (second compound 0.00949 µM, first compound 3.16 µM)?
Answer: Its viability, T/C is 84%.

Question: And the viability, T/C (second compound 0.00949 µM, first compound 10 µM)?
Answer: Its viability, T/C is 17.9%.

Question: What about the viability, T/C (second compound 0.03 µM, first compound 0.0316 µM) of the same compound?
Answer: Its viability, T/C is 81.4%.

Question: What about the viability, T/C (second compound 0.03 µM, first compound 0.1 µM) of the same compound?
Answer: Its viability, T/C is 78.3%.

Question: What about the viability, T/C (second compound 0.03 µM, first compound 0.316 µM) of the same compound?
Answer: The viability, T/C was 83.2%.

Question: What about the viability, T/C (second compound 0.03 µM, first compound 1 µM) of the same compound?
Answer: Its viability, T/C is 75.4%.

Question: And the viability, T/C (second compound 0.03 µM, first compound 3.16 µM)?
Answer: Its viability, T/C is 73.2%.

Question: And the viability, T/C (second compound 0.03 µM, first compound 10 µM)?
Answer: The viability, T/C was 21%.

Question: And the viability, T/C (second compound 0.0949 µM, first compound 0.0316 µM)?
Answer: Its viability, T/C is 87.4%.

Question: And the viability, T/C (second compound 0.0949 µM, first compound 0.1 µM)?
Answer: The viability, T/C was 85.3%.

Question: And the viability, T/C (second compound 0.0949 µM, first compound 0.316 µM)?
Answer: The viability, T/C was 75.7%.

Question: And the viability, T/C (second compound 0.0949 µM, first compound 1 µM)?
Answer: Its viability, T/C is 77.9%.

Question: What about the viability, T/C (second compound 0.0949 µM, first compound 3.16 µM) of the same compound?
Answer: Its viability, T/C is 61.5%.

Question: What about the viability, T/C (second compound 0.0949 µM, first compound 10 µM) of the same compound?
Answer: The viability, T/C was 22.8%.

Question: And the viability, T/C (second compound 0.3 µM, first compound 0.0316 µM)?
Answer: The viability, T/C was 92.2%.

Question: And the viability, T/C (second compound 0.3 µM, first compound 0.1 µM)?
Answer: The viability, T/C was 84.3%.

Question: And the viability, T/C (second compound 0.3 µM, first compound 0.316 µM)?
Answer: The viability, T/C was 73.4%.

Question: And the viability, T/C (second compound 0.3 µM, first compound 1 µM)?
Answer: Its viability, T/C is 84.1%.

Question: And the viability, T/C (second compound 0.3 µM, first compound 3.16 µM)?
Answer: Its viability, T/C is 71.8%.

Question: And the viability, T/C (second compound 0.3 µM, first compound 10 µM)?
Answer: The viability, T/C was 17%.

Question: What does the source list for CNCc1ccc(-c2cc(-c3nc(-c4ccc(S(=O)(=O)C(C)C)cc4)cnc3N)on2)cc1 + Cn1nnc2c(C(N)=O)ncn2c1=O?
Answer: IC50 (second compound 1 µM): 756 nM; IC50 (second compound 3.16 µM): 717 nM; IC50 (second compound 10 µM): 755 nM; IC50 (second compound 31.6 µM): 1030 nM; IC50 (second compound 100 µM): 1370 nM; viability, T/C (second compound 1 µM, first compound 0.00949 µM): 110%; viability, T/C (second compound 1 µM, first compound 0.03 µM): 125%; viability, T/C (second compound 1 µM, first compound 0.0949 µM): 138%; viability, T/C (second compound 1 µM, first compound 0.3 µM): 140%; viability, T/C (second compound 1 µM, first compound 0.949 µM): 30.7%; viability, T/C (second compound 1 µM, first compound 3 µM): 0.26%; viability, T/C (second compound 3.16 µM, first compound 0.00949 µM): 96.1%; viability, T/C (second compound 3.16 µM, first compound 0.03 µM): 119%; viability, T/C (second compound 3.16 µM, first compound 0.0949 µM): 127%; viability, T/C (second compound 3.16 µM, first compound 0.3 µM): 134%; viability, T/C (second compound 3.16 µM, first compound 0.949 µM): 27.6%; viability, T/C (second compound 3.16 µM, first compound 3 µM): 0.51%; viability, T/C (second compound 10 µM, first compound 0.00949 µM): 117%; viability, T/C (second compound 10 µM, first compound 0.03 µM): 117%; viability, T/C (second compound 10 µM, first compound 0.0949 µM): 131%; viability, T/C (second compound 10 µM, first compound 0.3 µM): 128%; viability, T/C (second compound 10 µM, first compound 0.949 µM): 31.8%; viability, T/C (second compound 10 µM, first compound 3 µM): 0.23%; viability, T/C (second compound 31.6 µM, first compound 0.00949 µM): 110%; viability, T/C (second compound 31.6 µM, first compound 0.03 µM): 117%; viability, T/C (second compound 31.6 µM, first compound 0.0949 µM): 144%; viability, T/C (second compound 31.6 µM, first compound 0.3 µM): 123%; viability, T/C (second compound 31.6 µM, first compound 0.949 µM): 53.7%; viability, T/C (second compound 31.6 µM, first compound 3 µM): 1.75%; viability, T/C (second compound 100 µM, first compound 0.00949 µM): 119%; viability, T/C (second compound 100 µM, first compound 0.03 µM): 125%; viability, T/C (second compound 100 µM, first compound 0.0949 µM): 123%; viability, T/C (second compound 100 µM, first compound 0.3 µM): 114%; viability, T/C (second compound 100 µM, first compound 0.949 µM): 73.3%; viability, T/C (second compound 100 µM, first compound 3 µM): 0.35%
